From PMC4214736, “Identification of a Novel Drug Lead That Inhibits HCV Infection and Cell-to-Cell Transmission by Targeting the HCV E2 Glycoprotein” (PLoS ONE, 2014)

Assays:
[1] = molecular target: HCV E2 protein Con1 eE2 (envelope protein 2 ectodomain, amino acids 384-656) (Hepatitis C virus, isolate Con1 (genotype 1)) (UniProt Q9WMX2); test: SPR; Biacore T100; HCV E2 (1 µM in 10 mM sodium acetate pH 5) immobilised on a CM5 chip by amine coupling, about 10,000 RU; his-CD81 (50 nM) in PBS injected as positive control
[2] = molecular target: T1, recombinant HCV E2 protein (Con1eE2, eE2) (Hepatitis C virus (isolate Con1), UniProt Q9WMX2); test: SPR single concentration screen (Biacore T100, CM5 chip); type: binding; details: 200 µM ligand in PBS; E2 immobilised by amine coupling (about 10,000 RU)
T1 construct: E2 ectodomain residues 384-656 cut from the HCV genome polyprotein; C-terminal Protein A tag removed by PreScission protease; secreted from HEK293T cells (lentiviral)
From the text: SPR single concentration screen (Biacore T100, CM5 chip) on recombinant HCV E2 protein (Con1eE2, eE2)

his-tagged CD81-LEL = molecular target: T2, his-tagged CD81-LEL (Homo sapiens, UniProt P60033); test: SPR single cycle kinetics (Biacore T100, CM5 chip); type: binding
T2 construct: His-tagged, commercial (Bioclone Inc.)
T2 sequence (P60033 113-201 limits assumed): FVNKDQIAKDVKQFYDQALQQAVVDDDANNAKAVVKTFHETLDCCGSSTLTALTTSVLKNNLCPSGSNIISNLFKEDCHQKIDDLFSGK

[3] = molecular target: T3, HCV E2 protein binding to GST-tagged human CD81-LEL (Hepatitis C virus (isolate Con1), UniProt Q9WMX2); test: ELISA, inhibition of E2 binding to immobilised CD81-LEL
T3 construct: with CD81 antigen (Homo sapiens)

[4] = molecular target: T1, recombinant HCV E2 protein (Con1eE2, eE2); test: SPR single cycle kinetics (Biacore T100, CM5 chip); type: binding

T1 sequence (Q9WMX2 384-656): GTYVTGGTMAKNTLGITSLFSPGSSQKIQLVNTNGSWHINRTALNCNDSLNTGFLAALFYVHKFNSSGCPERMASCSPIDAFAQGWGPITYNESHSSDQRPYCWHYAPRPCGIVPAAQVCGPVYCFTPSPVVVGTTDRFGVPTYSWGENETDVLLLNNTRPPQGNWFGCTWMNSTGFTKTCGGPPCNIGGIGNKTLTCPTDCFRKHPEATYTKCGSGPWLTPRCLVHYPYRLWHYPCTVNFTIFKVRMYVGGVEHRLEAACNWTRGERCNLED
T3 sequence (Q9WMX2 384-656, one chain of several): as the sequence (Q9WMX2 384-656) above
Sequence of HCV E2 protein Con1 eE2 (envelope protein 2 ectodomain, amino acids 384-656) (Hepatitis C virus, isolate Con1 (genotype 1)) (Q9WMX2 384-656): as above

“His-CD81-LEL (large extracellular loop of CD81, his-tagged) (domain or fragment)” gave a response units bound [1] of 106 RU.

With `Nc1nc(N)nc(-c2ccccc2-c2nc(N)nc(N)n2)n1` [compound 4429, NSC# 4429] the “Binding (RU)” value [2] was 155.3 RU.

For `CC1(C)N=C(N)N=C(N)N1c1ccc(OCCCOc2ccccc2)c(Cl)c1.CCS(=O)(=O)O` [compound 133071, NSC# 133071], the “Binding (RU)” value [2] was 276.3 RU.

In the case of `Cc1nc(/N=C(/N)N(C)C)[nH]c(=O)c1C` [compound 113486, NSC# 113486], the “Binding (RU)” value [2] is reported as 104.7 RU.

`CSc1ccc2c(c1)C(N1CCN(C)CC1)Cc1ccccc1S2` (stereo not drawn) [compound 281816, 1-methyl-4-(3-methylsulfanyl-5,6-dihydrobenzo[b] [1]benzothiepin-5-yl)piperazine] showed a Kd (his-tagged CD81-LEL) of 57 µM, an IC50 [3] of 0.2 to 0.5 µM and a Kd [4] of 41 µM.

In the case of NSC# 144694 [compound 144694], the “Binding (RU)” value [2] is reported as 118.8 RU.

In the case of `COc1ccc(C2=CC(c3ccc(OC)c(OC)c3)c3c(c4ccccc4oc3=O)O2)cc1OC` (stereo not drawn) [compound 211490, NSC# 211490], the “Binding (RU)” value [2] is reported as 102.9 RU.
